Legend:
HEK293 cells = settings: cited from earlier work
HL-60 cells = assay: Static cell adhesion to mouse E-selectin-Fc (mCD62E) coated surfaces; format: cell-based, human; settings: HL-60 pre-incubated 50 μM, 48 h; adhesion 60 min
Protocol: Effect of ManNAc analogues on cell adhesion to E-selectin and L-selectin coated surfaces: This assay was performed in 96-well polystyrene plates under sterile conditions. The plates were prepared freshly on the day of adhesion experiments. Wells were first coated with protein-G (200 ng in 50 μL PBS per well) for 1.0 h at room temperature (RT) followed by PBS washes (2×0.1 mL). Then either recombinant mouse E-selectin-Fc chimera or L-selectin-Fc chimera (20 ng in 50 μL PBS per well) was added to the wells and plate was left undisturbed for 1.0 h at RT. Wells were aspirated and washed with PBS (2×0.1 mL) followed by blocking with 1.0% (w/v) BSA in 50 μL PBS per well for 1.0 h at RT. After blocking, the wells were washed with PBS (3×0.1 mL).
HL-60 cells (3.0×10^5 cells per mL; 2.0 mL in six well plates) were incubated with 50 μM ManNAc analogues, harvested at 48 h, washed once with serum free RPMI medium (0.5 mL), and resuspended in serum free RPMI 1640 media containing 1.5 mM CaCl2) (4.0×10^5 cells/mL in 1.0 mL). The single cell suspension was added to each well (2.0×10^4 cells in 50 μL media per well) and allowed to adhere for 1.0 h at 37° C. in a CO2 incubator. […] Images were captured at 10× magnification using Olympus IX53 fluorescence microscope. […] The images were analyzed manually and the total number of adherent cells per well for each condition were plotted.

| SMILES | increase of total sialic acid levels (HEK293 cells) | share of sialic acid being modified N-cyclopropanoyl-D-neuraminic acid (HEK293 cells) | increase in the numbers of adhered cells on mCD62E coated surface (HL-60 cells) |
| --- | --- | --- | --- |
| CC(=O)OC[C@H]1O[C@H](OC(C)=O)[C@@H](NC(=O)C2CC2)[C@@H](OC(C)=O)[C@@H]1OC(C)=O [Compound 1a, 1,3,4,6-tetra-O-acetyl-2-cyclopropanoylamino-2-deoxy-α-D-mannopyranose] | two folds | more than 50% | – |
| CC(=O)OC[C@H]1OC(OC(C)=O)[C@@H](NC(=O)C2CCC2)[C@@H](OC(C)=O)[C@@H]1OC(C)=O (stereo partly drawn) [Compound 1b, (3S,4R,5S,6R)-6-(acetoxymethyl)-3-(cyclobutanecarboxamido)tetrahydro-2H-pyran-2,4,5-triyl triacetate] | – | – | about 40% |

— patent publication US20240002424A1, “HEXOSAMINE COMPOUNDS AND METHODS THEREOF” (National Institute of Immunology, priority 2021, published 2024)
